Patent US20230386662A1, “RAPID AND DIRECT IDENTIFICATION AND DETERMINATION OF URINE BACTERIAL SUSCEPTIBILITY TO ANTIBIOTICS” (B. G. NEGEV TECHNOLOGIES AND APPLICATIONS LTD., AT …, priority 2020, published 2023)

How the values were obtained:
Assay type in all cases: cell-based
E. coli isolates = test: Susceptibility of E. coli urine isolates to antibiotics by the classical method VITEK2; parameters: key to Bacterial susceptibility category label: sensitive (S); resistant (R); conditions: for R (number of isolates resistant to the antibiotic) / S (number of isolates sensitive to the antibiotic): E. coli isolates from urine of UTI patients, 567 isolates studied
Excerpt: (§1) The present inventors studied 1005 different bacterial isolates derived directly from urine samples of UTIs patients, as follows:
(§2) These isolates were identified at a species level as well as their known susceptibility to most common used antibiotics, using the classical methods MALDI-TOF and VITEK2, respectively.
The samples where then processed for spectrometric measurements, by purifying the infecting bacteria directly from the urine as described herein above. A subset consisting of ten E. coli isolates was randomly selected, as detailed in table 1.

[1] = tested on: Klebsiella pneumonia isolates; test: Susceptibility of Klebsiella pneumonia urine isolates to antibiotics by the classical method VITEK2; conditions: Klebsiella pneumonia isolates from urine of UTI patients, 220 isolates studied
Excerpt: as §1, §2
FIGS. 7A-7B present the average second derivative IR spectra of Klebsiella pneumonia, in the 900-1800 cm^−1 region grouped as sensitive of resistant to: Amoxicillin (panel a), Ceftazidime (panel c), Ceftriaxone (panel e) and Cefuroxime (panel g). The ROC curves of the classification of these antibiotics are respectively presented in panels (b), (d), (f) and (h). […] The performances of the RF classifier for the classification between Klebsiella pneumonia isolates sensitive and resistant to the tested antibiotics are summarized in Table 4 similar to E. coli (Table 3).

[2] = tested on: Pseudomonas aeruginosa isolates; test: Susceptibility of Pseudomonas aeruginosa urine isolates to antibiotics by the classical method VITEK2; conditions: Pseudomonas aeruginosa isolates from urine of UTI patients, 121 isolates studied
Excerpt: as §1
These isolates were identified at a species level as well as their known susceptibility to most common used antibiotics, using the classical methods MALDI-TOF and VITEK2, respectively. […]

| Compound | R (number of isolates resistant to the antibiotic) (E. coli isolates) | S (number of isolates sensitive to the antibiotic) (E. coli isolates) | R (number of isolates resistant to the antibiotic) [1] | S (number of isolates sensitive to the antibiotic) [1] | R (number of isolates resistant to the antibiotic) [2] | S (number of isolates sensitive to the antibiotic) [2] | Bacterial susceptibility category label (E. coli isolates; E. coli isolate 306358) | Bacterial susceptibility category label (E. coli isolates; E. coli isolate 306365) | Bacterial susceptibility category label (E. coli isolates; E. coli isolate 306366) | Bacterial susceptibility category label (E. coli isolates; E. coli isolate 306382) | Bacterial susceptibility category label (E. coli isolates; E. coli isolate 307201) | Bacterial susceptibility category label (E. coli isolates; E. coli isolate 307212) | Bacterial susceptibility category label (E. coli isolates; E. coli isolate 307234) | Bacterial susceptibility category label (E. coli isolates; E. coli isolate 307368) | Bacterial susceptibility category label (E. coli isolates; E. coli isolate 307395) | Bacterial susceptibility category label (E. coli isolates; E. coli isolate 307402) |
| --- | --- | --- | --- | --- | --- | --- | --- | --- | --- | --- | --- | --- | --- | --- | --- | --- |
| Piperacill-Tazobactam | 58 | 506 | 41 | 179 | 10 | 76 |  |  |  |  |  |  |  |  |  |  |
| Sulfamethoxa-Trimeth | 194 | 371 | 92 | 126 |  |  | S | R | S | S | R | R | R | S | R | S |
| Amoxicillin ClavulA |  |  |  |  |  |  | S |  |  | S | S | S | S | S | S |  |
| CC(C)(O/N=C(\C(=O)N[C@@H]1C(=O)N2C(C(=O)[O-])=C(C[n+]3ccccc3)CS[C@H]12)c1csc(N)n1)C(=O)O [Ceftazidime] | 159 | 408 | 91 | 129 | 19 | 78 |  |  |  |  |  |  |  |  |  |  |
| C[C@H]1COc2c(N3CCN(C)CC3)c(F)cc3c(=O)c(C(=O)O)cn1c23 [Levofloxacin] |  |  |  |  | 33 | 63 |  |  |  |  |  |  |  |  |  |  |
| CC1(C)S[C@@H]2[C@H](NC(=O)[C@H](N)c3ccc(O)cc3)C(=O)N2[C@H]1C(=O)O [Amoxicillin] | 170 | 397 | 61 | 159 |  |  |  |  |  |  |  |  |  |  |  |  |
| CO/N=C(\C(=O)N[C@@H]1C(=O)N2C(C(=O)O)=C(CSc3nc(=O)c(=O)[nH]n3C)CS[C@H]12)c1csc(N)n1 [Ceftriaxone] | 160 | 407 | 87 | 133 |  |  | S | S | R | S | S | S | S | S | S | S |
| CC1=C(C(=O)O)N2C(=O)[C@@H](NC(=O)[C@H](N)c3ccccc3)[C@H]2SC1 [Cephalexin] | 167 | 372 | 90 | 121 |  |  |  |  |  |  |  |  |  |  |  |  |
| NC[C@H]1O[C@H](O[C@H]2[C@H](O)[C@@H](O[C@H]3O[C@H](CO)[C@@H](O)[C@H](N)[C@H]3O)[C@H](N)C[C@@H]2N)[C@H](N)C[C@@H]1O [Tobramycin] |  |  |  |  | 15 | 79 |  |  |  |  |  |  |  |  |  |  |
| Gentamicin | 68 | 498 | 41 | 179 | 17 | 80 |  |  |  |  |  |  |  |  |  |  |
| CO/N=C(\C(=O)N[C@@H]1C(=O)N2C(C(=O)O)=C(COC(N)=O)CS[C@H]12)c1ccco1 [Cefuroxime] | 196 | 371 | 99 | 121 |  |  | S | S | R | S | S | S | S | S | S | S |
| C[C@@H](O)[C@H]1C(=O)N2C(C(=O)O)=C(S[C@@H]3CN[C@H](C(=O)N(C)C)C3)[C@H](C)[C@H]12 [Meropenem] |  |  |  |  | 20 | 77 |  |  |  |  |  |  |  |  |  |  |
| O=C1CN(/N=C/c2ccc([N+](=O)[O-])o2)C(=O)N1 [Nitrofurantoin] | 47 | 502 | 150 | 62 |  |  |  |  |  |  |  |  |  |  |  |  |
| CC1(C)S[C@@H]2[C@H](NC(=O)[C@H](N)c3ccccc3)C(=O)N2[C@H]1C(=O)O [Ampicillin] | 384 | 181 |  |  |  |  | S | R | R | S | R | S | R | S | R | R |
| CCN1CCN(C(=O)N[C@@H](C(=O)N[C@@H]2C(=O)N3[C@@H]2SC(C)(C)[C@@H]3C(=O)O)c2ccccc2)C(=O)C1=O [Piperacillin] |  |  |  |  | 23 | 59 |  |  |  |  |  |  |  |  |  |  |
| CO/N=C(\C(=O)N[C@@H]1C(=O)N2C(C(=O)OC(C)OC(C)=O)=C(COC(N)=O)CS[C@H]12)c1ccco1 (stereo partly drawn) [Cefuroxime-Axetil] | 190 | 351 | 95 | 112 |  |  |  |  |  |  |  |  |  |  |  |  |
| C[C@@H](O)[C@H]1C(=O)N2C(C(=O)O)=C(SCCN=CN)C[C@H]12 [Imipenem] |  |  |  |  | 18 | 72 |  |  |  |  |  |  |  |  |  |  |
